According to patent US20100249231A1, “HSP90 Inhibitors of Protein-Protein Interaction HSP90 Chaperone Complexes and Therapeutic Uses Thereof” (THE OHIO STATE UNIVERSITY RESEARCH FOUNDATION, priority 2007, published 2010):
Peptide text beside a SMILES is read from it. * marks the point of attachment. Cbz = O=C(OCc1ccccc1)*

Tests used:
Akt = test: Western blot of Hsp90 client protein Akt in Panc-1 cells; type: cell-based, human; settings: for level of Akt protein: 10 μM proteasome inhibitor, 24 h
Method: (§1) The levels of Akt and Cdk4, two well-known Hsp90 clients, were measured. Celastrol decreased the protein levels of Akt and Cdk4 in a concentration- and time-dependent manner.
(§2) Western Blot. The general procedure for the Western blot analysis was briefly described as follows. After drug treatment, cells were washed twice with ice-cold phosphate-buffered saline (PBS), scraped into lysis buffer (20 mM Tris, pH 7.5, 1% Nonidet P-40, 150 mM NaCl, 5 mM EDTA, 1 mM Na3VO4) supplemented with a protease inhibitor mixture (Sigma, added at a 1:100 dilution), and incubated on ice for 20 min. The lysate was then centrifuged at 14,000×g for 10 min. Equal amounts of total protein were subjected to SDS-PAGE and transferred onto nitrocellulose membranes and probed with appropriate antibodies.

Cdk4 = test: Western blot of Hsp90 client protein Cdk4 in Panc-1 cells; type: cell-based, human; settings: for level of Cdk4 protein: 10 μM proteasome inhibitor, 24 h
Method: as §1, §2

Hsp90 = test: Western blot of Hsp90 protein levels; type: cell-based, human
Method: as §2

Panc-1 cells = test: MTS assay; settings: read-out: IC50 (cytotoxicity, MTS), 24 h
Method: MTS Assay. The human Panc-1 cells were seeded in 96-well plates at a density of 3000-5000 cells per well. […] Number of viable cells was assessed by MTS assay after 24 h. The IC50 values for cytotoxicity were calculated with WinNonlin software (Pharsight, Mountain View, Calif.).

[1] = system: RIP1-Tag2 transgenic pancreatic cancer mouse model; test: RIP1-Tag2 transgenic pancreatic cancer mouse model; type: in vivo, mice
Text: To further evaluate the anticancer efficacy of celastrol against pancreatic cancer, the inventors utilized celastrol to inhibit tumor growth in a RIP1-Tag2 transgenic pancreatic cancer mouse model. In this mouse model, hyperplastic islets begin to appear by 3-4 weeks of age, and solid tumors emerge in pancreas at about 8-9 weeks. The cancer will metastasized into other sites such as mesenterium in the peritoneal cavity from 10-12 weeks.
RIP1-Tag2 Transgenic Mouse Model. RIP1-Tag2 transgenic mice used contained the insulin promoter-driven SV40 T-antigen and produced spontaneous multifold and multistage pancreatic islet tumors. RIP1-Tag2 positive mice were identified by PCR analysis of genomic DNA from tail biopsy. […] After 4 weeks of injection, mice of each group were sacrificed by CO2 and tumors were isolated and saved. The remaining mice were kept to calculate the survival rate.

Panc-1 xenograft tumor = test: Panc-1 xenograft mouse model; type: in vivo, mice; settings: 3 mg/kg i.p.; for inhibition of tumor growth: after the last injection
Method: After the last injection, celastrol inhibited 80% of tumor growth (p<0.001) (FIG. 6A).
Xenograft Mouse Model. 4 to 6-week old nu/nu athymic female mice were obtained from Charles River Laboratories (Charles River, Wilmington, Mass.). The human Panc-1 cells (5-10×10^6) were mixed with reconstituted basement membrane (Collaborative Research, Bedford, Mass.) and implanted to the right and left flanks of the mice. Tumor volumes were calculated with the formula: width^2×length/2. When tumors reached 100 mm^3, animals were randomized into different groups for treatment (n=6/group).
Then, the dosing schedule was changed to one injection per three days. Tumor sizes and body weights were measured twice a week.

[2] = 3 mg/kg i.p. once every 3 days for four weeks, at 12th week

SMILES: CC(C)C[C@@H](C=O)NC(=O)[C@H](CC(C)C)NC(=O)[C@H](CC(C)C)NC(=O)OCc1ccccc1 [MG132] (Cbz-Leu-Leu-Leu-aldehyde)
- level of Akt protein (Akt): did not change the levels
- level of Cdk4 protein (Cdk4): did not change the levels

SMILES: CC1=C(O)C(=O)C=C2C1=CC=C1[C@@]2(C)CC[C@@]2(C)[C@@H]3C[C@](C)(C(=O)O)CC[C@]3(C)CC[C@]12C [celastrol, (9b,13a,14b,20a)-3-Hydroxy-9,13-dimethyl-2-oxo-24,25,26-trinoroleana-1(10),3,5,7-tertraen-29-oic acid]
- effect on Hsp90 protein levels (Hsp90): no effect
- decrease of Akt protein level (Akt; 5 μM, 24-h treatment): 80%
- IC50 (Panc-1 cells): 3 µM
- median survival time ([1]; 3 mg/kg i.p.): 96 days
- survival increase over control ([1]; 3 mg/kg i.p.): 12 days
- decrease of tumors in pancreas compared to the control group [1, 2]: 30%
- weight loss ([1]; 3 mg/kg i.p., RIP1-Tag2 mice): about 10%
- inhibition of tumor growth (Panc-1 xenograft tumor): 80%
- inhibition of tumor growth (Panc-1 xenograft tumor; listed as Celastrol): more than 80%
- weight loss in mice (Panc-1 xenograft tumor; xenograft mice): 5%
- decrease of Cdk4 protein level (Cdk4; 5 μM, 24-h treatment): 70%

SMILES: COC1=C2C[C@@H](C)C[C@H](OC)[C@H](O)[C@@H](C)/C=C(\C)[C@H](OC(N)=O)[C@@H](OC)/C=C\C=C(/C)C(=O)NC(=CC1=O)C2=O [geldanamycin, reference compound]
- IC50 (Panc-1 cells): 8 µM
- survival increase over control ([1]; 3 mg/kg i.p.): 6 days
- decrease of metastatic tumors in mesenterium compared to the control group [1, 2]: 50%
- decrease of tumors in pancreas compared to the control group [1, 2]: 13%

SMILES: CC(=O)N[C@@H](CSC(=O)[C@]1([C@@H](O)C(C)C)NC(=O)[C@H](C)[C@@H]1O)C(=O)O [lactacystin]
- level of Akt protein (Akt): did not change the levels
- level of Cdk4 protein (Cdk4): did not change the levels
